The supplement of paper PMC10331698
± gives the standard deviation of the averaged measurements.

Key:
Test in all cases: level (log10 ratio to DMSO vehicle control); higher = higher biomarker level / cell amount than vehicle control
Conditions in all cases: in DMSO
Heptafluorobutyl iodide = compound: FC(F)(F)C(F)(F)C(F)(F)CI [Heptafluorobutyl iodide]
Protocol: (§1)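 BioMAP Diversity Plus panel of 12 human primary cell co-culture systems (3C, 4H, LPS, SAg, BT, BF4T, BE3C, CASM3C, HDF3CGF, KF3CT, MyoF, Mphg). Compounds were added 1 h before stimulation and left for 24 h (MyoF 48 h; BT 72 h for soluble read-outs or 6 d for IgG). Biomarkers were read by ELISA, cytotoxicity by SRB, PBMC viability and proliferation by Alamar Blue. Each well value was divided by the mean of 8 DMSO control wells on the same plate and log10 transformed; duplicate blinded samples were tested at 4 concentrations.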

[1] = compound: FC(F)(F)C(F)(F)C(F)(F)C(F)(F)C(F)(F)C(F)(F)CC1CO1 [3-(Perfluorohexyl)-1,2-epoxypropane]
Protocol: as §1

Octafluoroadipamide = compound: NC(=O)C(F)(F)C(F)(F)C(F)(F)C(F)(F)C(N)=O [Octafluoroadipamide]
Protocol: as §1

[2] = compound: O=S(=O)(O)CCC(F)(F)C(F)(F)C(F)(F)C(F)(F)C(F)(F)C(F)(F)F [6:2 Fluorotelomer sulfonic acid]
Protocol: as §1

[3] = compound: FC(F)(F)C(F)(F)C(F)(F)C(F)(F)C(F)(F)C(F)(F)C(F)(F)I [1-Iodopentadecafluoroheptane]
Protocol: as §1

[4] = compound: O=S(=O)(Cl)C(F)(F)C(F)(F)C(F)(F)C(F)(F)C(F)(F)C(F)(F)C(F)(F)C(F)(F)F [Perfluoro-1-octanesulfonyl chloride]
Protocol: as §1

[5] = compound: O=S(=O)(F)C(F)(F)C(F)(F)C(F)(F)C(F)(F)C(F)(F)C(F)(F)C(F)(F)C(F)(F)F [Perfluorooctanesulfonyl fluoride]
Protocol: as §1

Row | Test System | level (log10) (Heptafluorobutyl iodide; 6700 nM) | level (log10) (Heptafluorobutyl iodide; 20000 nM) | level (log10) (Heptafluorobutyl iodide; 60000 nM) | level (log10) ([1]; 6700 nM) | level (log10) ([1]; 20000 nM) | level (log10) ([1]; 60000 nM) | level (log10) (Octafluoroadipamide; 6700 nM) | level (log10) (Octafluoroadipamide; 20000 nM) | level (log10) (Octafluoroadipamide; 60000 nM) | level (log10) ([2]; 6700 nM) | level (log10) ([2]; 20000 nM) | level (log10) ([2]; 60000 nM) | level (log10) ([3]; 6700 nM) | level (log10) ([3]; 20000 nM) | level (log10) ([4]; 6700 nM) | level (log10) ([4]; 20000 nM) | level (log10) ([4]; 60000 nM) | level (log10) ([5]; 6700 nM) | level (log10) ([5]; 20000 nM) | level (log10) ([5]; 60000 nM)
1 | lMphg:CD69 | -0.048 ± 0.03 | -0.033 | -0.026 ± 0.025 | 0.004 ± 0.025 | -0.007 ± 0.021 | 0.0235 ± 0.049 | -0.0425 ± 0.052 | -0.027 ± 0.042 | 0.0275 ± 0.063 | -0.034 ± 0.04 | -0.065 ± 0.054 | -0.073 ± 0.025 | -0.0455 ± 0.043 | -0.079 ± 0.062 | -0.054 ± 0.0099 | -0.0855 ± 0.033 | -0.111 ± 0.09 | -0.0075 ± 0.036 | -0.0125 ± 0.029 | -0.0175 ± 0.032
2 | HDF3CGF:CCL2/MCP-1 | -0.01 ± 0.0057 | -0.013 ± 0.0057 | -0.0025 ± 0.025 | -0.0165 ± 0.0021 | -0.0045 ± 0.019 | 0.0055 ± 0.03 | 0.003 | -0.019 ± 0.028 | -0.0115 ± 0.005 | 0.0075 ± 0.019 | 0.0085 ± 0.021 | 0.008 ± 0.014 | -0.0205 ± 0.025 | -0.0335 ± 0.0035 | -0.026 ± 0.038 | -0.0505 ± 0.021 | -0.0235 ± 0.028 | -0.0035 ± 0.028 | 0.007 ± 0.023 | -0.007 ± 0.072
3 | CASM3C:CD106/VCAM-1 | -0.023 ± 0.013 | -0.0245 ± 0.019 | -0.028 ± 0.0042 | -0.024 ± 0.0099 | -0.0175 ± 0.022 | -0.01 ± 0.034 | -0.0525 ± 0.005 | -0.04 ± 0.018 | -0.0275 ± 0.033 | -0.008 ± 0.011 | -0.0325 ± 0.022 | -0.0605 ± 0.026 | -0.0125 ± 0.005 | -0.019 ± 0.034 | -0.0395 ± 0.0092 | -0.0455 ± 0.015 | -0.0235 ± 0.032 | 0.0015 ± 0.032 | 0.0035 ± 0.05 | -0.008 ± 0.0085
4 | CASM3C:SRB | -0.0085 ± 0.0064 | 0.002 ± 0.0042 | 0.0055 ± 0.0078 | 0 ± 0.0085 | -0.009 ± 0.0014 | 0.0025 ± 0.00071 | 0.0075 ± 0.013 | 0.002 ± 0.013 | -0.005 ± 0.0042 | -0.004 ± 0.0028 | 0.0025 ± 0.0021 | 0.001 ± 0.0085 | -0.0025 ± 0.0092 | 0.007 | 0.0075 ± 0.00071 | 0.0045 ± 0.0078 | 0.014 ± 0.0042 | 0.002 ± 0.0014 | -0.006 ± 0.0071 | -0.0015 ± 0.0021
5 | 3C:Proliferation | -0.0165 ± 0.00071 | 0.005 ± 0.023 | 0.014 ± 0.041 | -0.013 ± 0.0042 | -0.0055 ± 0.054 | -0.0375 ± 0.035 | -0.0265 ± 0.036 | 0.0065 ± 0.067 | -0.0085 ± 0.063 | 0.0055 ± 0.0021 | 0.012 ± 0.027 | 0.0305 ± 0.039 | 0.0035 ± 0.013 | -0.0125 ± 0.0078 | -0.003 ± 0.0042 | 0.009 ± 0.03 | -0.112 ± 0.037 | 0.0125 ± 0.0092 | 0.0095 ± 0.016 | 0.0055 ± 0.046
6 | MyoF:alpha-SM Actin | 0.018 ± 0.0085 | 0.026 ± 0.054 | 0.0225 ± 0.032 | 0.0205 ± 0.015 | 0.0035 ± 0.0064 | 0.0185 ± 0.0035 | 0.022 ± 0.061 | 0.0315 ± 0.056 | 0.0385 ± 0.032 | 0.016 ± 0.018 | 0.001 ± 0.021 | -0.02 ± 0.082 | -0.115 ± 0.016 | -0.291 ± 0.045 | 0.0635 ± 0.0064 | 0.0665 ± 0.032 | -0.0065 ± 0.03 | -0.0005 ± 0.015 | 0.004 ± 0.018 | 0.0055 ± 0.021
7 | HDF3CGF:Collagen I | 0.0275 ± 0.03 | 0.021 ± 0.0099 | 0.065 ± 0.047 | -0.001 ± 0.025 | -0.0145 ± 0.012 | 0.0545 ± 0.04 | -0.005 ± 0.0057 | -0.015 ± 0.033 | 0.0045 ± 0.042 | -0.031 ± 0.095 | -0.007 ± 0.086 | 0.056 ± 0.11 | 0.017 ± 0.033 | -0.005 ± 0.017 | 0.001 ± 0.0057 | -0.01 ± 0.0071 | 0.0135 ± 0.066 | -0.0055 ± 0.057 | 0.015 ± 0.014 | 0.041 ± 0.027
8 | HDF3CGF:CXCL9/MIG | -0.012 ± 0.0071 | -0.0305 ± 0.016 | -0.022 ± 0.011 | 0.0095 ± 0.0092 | 0.0085 ± 0.016 | -0.0085 ± 0.013 | -0.006 ± 0.0014 | -0.0055 ± 0.015 | 0.016 ± 0.025 | -0.013 ± 0.048 | -0.0395 ± 0.018 | -0.046 ± 0.038 | -0.016 ± 0.0042 | 0.0015 ± 0.0064 | -0.0115 ± 0.019 | -0.0165 ± 0.018 | -0.0005 ± 0.026 | -0.01 ± 0.0028 | 0.0125 ± 0.0092 | -0.02 ± 0.017
